Results on eleven molecules are retold here after publication PMC11945486, “TAS1R2/TAS1R3 Single-Nucleotide Polymorphisms Affect Sweet Taste Receptor Activation by Sweeteners: The SWEET Project” (Nutrients, 2025).

The EC50 is the midpoint of the concentration-response curve.

The target in the assay is T1, human TAS1R2-WT/TAS1R3-R247H (Homo sapiens, UniProt Q7RTX0+Q8TE23, R247H).
T1 construct: expressed in transfected cells; host or cells: HEK293T stably expressing Gα16gust44
T1 sequence (Q8TE23 20-839): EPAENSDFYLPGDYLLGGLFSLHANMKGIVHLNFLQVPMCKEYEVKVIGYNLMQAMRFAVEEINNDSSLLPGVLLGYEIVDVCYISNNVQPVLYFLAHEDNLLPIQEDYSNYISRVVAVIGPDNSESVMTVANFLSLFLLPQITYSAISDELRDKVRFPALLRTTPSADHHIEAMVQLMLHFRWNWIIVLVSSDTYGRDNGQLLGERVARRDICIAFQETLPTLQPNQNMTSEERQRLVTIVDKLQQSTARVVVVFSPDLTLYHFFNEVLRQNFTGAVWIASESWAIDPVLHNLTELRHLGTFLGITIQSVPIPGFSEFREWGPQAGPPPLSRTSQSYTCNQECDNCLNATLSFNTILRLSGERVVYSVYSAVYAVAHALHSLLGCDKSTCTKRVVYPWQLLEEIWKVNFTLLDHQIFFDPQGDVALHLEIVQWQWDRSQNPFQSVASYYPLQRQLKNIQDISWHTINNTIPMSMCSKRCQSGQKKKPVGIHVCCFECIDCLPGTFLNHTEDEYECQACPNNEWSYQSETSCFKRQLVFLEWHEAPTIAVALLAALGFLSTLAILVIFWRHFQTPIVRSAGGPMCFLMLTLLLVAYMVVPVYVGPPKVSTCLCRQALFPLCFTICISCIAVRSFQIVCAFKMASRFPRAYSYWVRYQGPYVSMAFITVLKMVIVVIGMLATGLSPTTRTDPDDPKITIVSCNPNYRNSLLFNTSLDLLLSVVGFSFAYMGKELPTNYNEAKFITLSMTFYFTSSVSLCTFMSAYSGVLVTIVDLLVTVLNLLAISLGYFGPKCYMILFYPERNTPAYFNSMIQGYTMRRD
T1 sequence (Q7RTX0 21-852 R247H): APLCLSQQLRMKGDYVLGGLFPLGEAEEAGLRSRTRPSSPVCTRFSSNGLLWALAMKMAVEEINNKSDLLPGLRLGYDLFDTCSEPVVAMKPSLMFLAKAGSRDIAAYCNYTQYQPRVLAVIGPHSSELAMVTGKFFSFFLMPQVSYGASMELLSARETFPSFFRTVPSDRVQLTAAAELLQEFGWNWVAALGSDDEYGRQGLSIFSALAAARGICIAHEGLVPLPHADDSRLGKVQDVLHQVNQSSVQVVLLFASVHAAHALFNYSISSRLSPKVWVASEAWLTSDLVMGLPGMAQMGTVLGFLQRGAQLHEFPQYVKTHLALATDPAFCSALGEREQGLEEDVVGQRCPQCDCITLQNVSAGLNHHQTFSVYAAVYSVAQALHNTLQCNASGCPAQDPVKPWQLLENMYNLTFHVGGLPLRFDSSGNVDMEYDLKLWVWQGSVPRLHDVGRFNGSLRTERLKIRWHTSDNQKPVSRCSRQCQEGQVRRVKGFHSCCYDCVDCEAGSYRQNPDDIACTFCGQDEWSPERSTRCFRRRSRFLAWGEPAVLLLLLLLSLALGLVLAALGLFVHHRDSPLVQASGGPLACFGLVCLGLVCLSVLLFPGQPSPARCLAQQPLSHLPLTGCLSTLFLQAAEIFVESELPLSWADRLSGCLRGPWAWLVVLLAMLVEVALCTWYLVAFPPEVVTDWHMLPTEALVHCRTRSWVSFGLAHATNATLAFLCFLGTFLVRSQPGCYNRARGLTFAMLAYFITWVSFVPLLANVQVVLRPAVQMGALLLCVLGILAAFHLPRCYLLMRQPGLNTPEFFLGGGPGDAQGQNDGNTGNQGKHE
Nature of the assay: Calcium mobilisation assay, TAS1R2-WT with TAS1R3 variant R247H. It counts as cell-based. As to conditions: for Max ΔF/F0: maximal signal amplitude. From the text: The coding sequences for TAS1R2 and TAS1R3 were commercially synthesised, and the human codon was optimised for expression in human cells. The coding sequences of human TAS1R2 and TAS1R3 were subcloned and inserted into the mammalian expression vectors pcDNA6/myc-HisA and pcDNA4/myc-HisA (Invitrogen; Thermo Fisher Scientific; Illkirch, France) between the EcoRI and NotI restriction sites, generating the plasmids pcDNA6-TAS1R2 and pcDNA4-TAS1R3, respectively. To increase protein expression in mammalian cells, an upstream start codon was used, which was a sequence called MAX, corresponding to the QBI SP163 element also described in pcDNA4-HisMax (Invitrogen; Thermo Fisher Scientific; Illkirch, France). To measure the expression level of the receptor by immunohistochemistry, we used the FLAG sequence ([…]) in the C-terminal position, which encodes the FLAG tag epitope. SNP variants of TAS1R2 and TAS1R3 were constructed based on […], respectively, using site-directed mutagenesis (Genewiz; Leipzig, Germany).
The HEK293T cells were kindly provided by Jay P. Slack (Givaudan Flavors Corporation; Cincinnati, OH, USA). HEK293T cells stably transfected with Gα16gust44 [43, 67] were seeded in poly-D-lysine-coated clear-bottom black 96-well plates (0.35 × 10^5 cells/well) in high-glucose DMEM supplemented with 2 mM GlutaMAX, 10% dialysed foetal bovine serum with penicillin/streptomycin and G418 (400 μg/mL) at 37 °C and 6.3% CO2 in a humidified atmosphere as previously reported. […] As a negative control, HEK293T cells were mock-transfected with the empty expression vector. After a further 24 h of incubation, the HEK293T cells were washed with C1 buffer (130 mM NaCl, 5 mM KCl, 10 mM HEPES pH 7.4 and 2 mM CaCl2). The 96-well plates containing the cells were then stimulated with sweet-tasting compounds. […] Different concentration ranges were tested depending on the sweet compound injected. The Ca^2+ changes were expressed as fractional changes in fluorescent light intensity: ΔF/F = (F − F0)/F0, where F was the fluorescent light intensity at each point, and F0 was the value of emitted fluorescent light prior to stimulus application. To calculate dose–response relationships, the changes in fluorescence upon stimulus application were averaged, mock-subtracted and baseline-corrected. The dose–response data obtained were adjusted using a 4-parameter logistic equation. The half-maximal effective concentrations (EC50 values) and maximal signal amplitudes were calculated using SigmaPlot software (version 15.0) (Systat Software; San Jose, CA, USA).
For in vitro calcium mobilisation assay performed on hTAS1R2-SNPs, hTAS1R3-SNPs and mTAS1R3-I60T, 6 to 7 concentrations were tested for each sweet compound, plus buffer alone. All concentration–receptor combinations were measured in duplicate, and each experiment was repeated at least 4 times (8 wells/concentration). Results were expressed for each concentration as ΔF/F mean ± SEM and represented as dose–response curves.
For orientation: Calcium assays in cells follow changes in intracellular calcium, usually with a dye or a luminescent sensor.

Where two headings read alike, the source gives them in different places. No end group written: not given here.

As to `C=C(C)[C@@H]1CC=C(/C=N/O)CC1` [Perillartine, perillartine], the “R1 = Variant EC50/WT EC50” value was found to be 0.6 and the “Max ΔF/F0” value was 1.26 ± 0.15. Besides, the concentration for a half-maximal effect (EC50) (read-out: EC50) was 8.5 ± 3.1 µM.
Take `O=S(=O)(O)NC1CCCCC1` [Cyclamate, cyclamate]: the EC50 (read-out: EC50) turned out to be 1520 ± 46 µM.
For `C=C1C[C@@]23CC[C@H]4[C@@](C)(CCC[C@@]4(C)C(=O)O[C@@H]4O[C@H](CO)[C@@H](O)[C@H](O[C@@H]5O[C@H](CO)[C@@H](O)[C@H](O)[C@H]5O)[C@H]4O[C@@H]4O[C@H](CO)[C@@H](O)[C@H](O)[C@H]4O)[C@@H]2CC[C@]1(O[C@@H]1O[C@H](CO)[C@@H](O)[C@H](O[C@@H]2O[C@H](CO)[C@@H](O)[C@H](O)[C@H]2O)[C@H]1O[C@@H]1O[C@H](CO)[C@@H](O)[C@H](O)[C@H]1O)C3` [Rebaudioside M, rebaudioside M], the “R1 = Variant EC50/WT EC50” value was determined as 0.7 and the “Max ΔF/F0” value is reported as 1.15 ± 0.04. Besides, the EC50 (read-out: EC50) was 29.7 ± 2.6 µM.
In the case of `OC[C@H]1O[C@H](O[C@]2(CCl)O[C@H](CCl)[C@@H](O)[C@@H]2O)[C@H](O)[C@@H](O)[C@H]1Cl` [Sucralose], the “R1 = Variant EC50/WT EC50” value was 1.1 and the “Max ΔF/F0” value is recorded as 0.69 ± 0.01. Under “read-out: EC50”, the half-maximal effective concentration (EC50) was determined as 122 ± 2 µM.
In the case of `CC1=CC(=O)NS(=O)(=O)O1` [Acesulfame K, acesulfame K], the “R1 = Variant EC50/WT EC50” value worked out at 1.0 and the “Max ΔF/F0” value was found to be 0.33 ± 0.01. Also, under “read-out: EC50”, the EC50 was 639 ± 17 µM.
For “brazzein (QDKCKKVYENYPVSKCQLANQCNYDCKLDKHARSGECFYDEKRNLQCICDYCEY; ends and bridges not checked; cysteine pairing not given here; UniProt P56552 1-54, looked up) [sweet-tasting protein obtained by recombinant production using the yeast Pichia pastoris]”, the “R1 = Variant EC50/WT EC50” value is recorded as 0.6 and the “Max ΔF/F0” value was 0.95 ± 0.03. For the same molecule, the concentration giving a half-maximal response (EC50) (brazzein) worked out at 70.8 ± 8.1 mg/L.
As for thaumatin, the “R1 = Variant EC50/WT EC50” value was 0.8 and the “Max ΔF/F0” value amounted to 0.73 ± 0.08.
With `COC(=O)[C@H](Cc1ccccc1)NC(=O)[C@H](CC(=O)O)NCCC(C)(C)C` [Neotame], the “R1 = Variant EC50/WT EC50” value was determined as 0.9 and the “Max ΔF/F0” value was 0.71 ± 0.02. Moreover, the concentration for a half-maximal effect (EC50) (read-out: EC50) is 1.12 ± 0.07 µM.
In the case of `C[C@H](CC[C@@H](O[C@@H]1O[C@H](CO[C@@H]2O[C@H](CO)[C@@H](O)[C@H](O)[C@H]2O)[C@@H](O)[C@H](O)[C@H]1O[C@@H]1O[C@H](CO)[C@@H](O)[C@H](O)[C@H]1O)C(C)(C)O)[C@H]1CC[C@@]2(C)[C@@H]3CC=C4[C@@H](CC[C@H](O[C@@H]5O[C@H](CO[C@@H]6O[C@H](CO)[C@@H](O)[C@H](O)[C@H]6O)[C@@H](O)[C@H](O)[C@H]5O)C4(C)C)[C@]3(C)[C@H](O)C[C@]12C` [Mogroside V, mogroside V], the “R1 = Variant EC50/WT EC50” value is 0.9 and the “Max ΔF/F0” value stood at 1.12 ± 0.02. Further, the EC50 (read-out: EC50) is 28.7 ± 1.6 µM.
Take `COc1ccc(CCC(=O)c2c(O)cc(O[C@@H]3O[C@H](CO)[C@@H](O)[C@H](O)[C@H]3O[C@@H]3O[C@@H](C)[C@H](O)[C@@H](O)[C@H]3O)cc2O)cc1O` [NHDC, neohesperidin dihydrochalcone]: the “R1 = Variant EC50/WT EC50” value was 1.3 and the “Max ΔF/F0” value was 1.14 ± 0.05. For the same molecule, the 50% effective concentration (EC50) (read-out: EC50) came out at 65 ± 8.9 µM.

B1: thaumatin (protein)
chain: ATFEIVNRCSYTVWAAASKGDAALDAGGRQLNSGESWTINVEPGTKGGKIWARTDCYFDDSGSGICKTGDCGGLLRCKRFGRPPTTLAEFSLNQYGKDYIDISNIKGFNVPMDFSPTTRGCRGVRCAADIVGQCPAKLKAPGGGCNDACTVFQTSEYCCTTGKCGPTEYSRFFKRLCPDAFSYVLDKPTTVTCPGSSNYRVTFCPTA
modifications: Eight disulfides
notes: sweet-tasting plant protein, E957
B1: where the note is “read-out: EC50”, the concentration giving a half-maximal response (EC50) came out at 8.2 ± 2.3 µM.
